Reference: patent US20160319277A1, “METHODS OF IMPROVED PROTEIN PRODUCTION USING MIRNAs AND SIRNAs” (THE JOHNS HOPKINS UNIVERSITY, priority 2015, published 2016)

System: HEK-CMV-Luc2-Hygro cells
Assay: High-throughput genome-wide siRNA screen and validation screen for luciferase expression
Type: cell-based, human
Settings: Table 3, primary screen, 72 h; for per_cell: per cell luciferase yield relative to negative control; for VIA: viable cell density as % of negative control
Experimental: The Silencer Select™ Human genome siRNA library (Ambion), which targets 21,585 human genes with 3 siRNAs per gene, was used for screening. Each siRNA is arrayed in an individual well (Corning 3570, 384 well, white, solid bottom plates). The transfection was done in duplicates: 0.8 pmol of each siRNA was spotted to a well of a 384-well plate (Corning) and 20 μL of serum-free DMEM containing 0.07 μL of Lipofectamine™ RNAiMax (Life Technologies) was then added to each well. This lipid-siRNA mixture was incubated at ambient temperature for 30 min prior to addition of 4000 cells in 20 μL of DMEM containing 20% FBS (Gibco). After incubating the transfected cells at 37° C. in 5% CO2 for 72 hours, 20 μL of ONE-Glo™ Reagent (Promega) was added to one set of replicates for ‘overall luciferase yield’ quantification and 20 μL of CellTiter-Glo™ Reagent (Promega) was added to the second set of replicates for ‘viable cell density’ measurement. All plates were incubated at room temperature for 20 minutes to stabilize the luminescent signal and the signal was then measured with PerkinElmer Envision 2104 Multilabel™ plate reader.
The 56 genes which got targeted by at least two independent siRNAs (out of three) resulting in enhanced luciferase production with MAD-based z-score>3 from the primary screen were subjected to validation screen using 3 additional Silencer™ siRNAs (Ambion) with different sequences from those used in the primary screen. […] The transfection and assay processes were-the same as the primary genome-wide screen. Data visualization was performed in R computational environment (available on the World Wide Web at R-project.org/) by using ‘hexbin’ and ‘ggplot2’ packages.
The screen generated end-point data for ‘overall luciferase yield’ and ‘viable cell density’ in each well. For each plate, the median value of the negative control wells was set as 100% and was used to normalize corresponding sample wells. The ‘overall luciferase yield’ and ‘viable cell density’ were exported as % of negative control and the median absolute deviation (MAD)-based z-score was calculated for each sample.

Substance	per_cell	VIA
38 (GCAGUGGACAUAGAAGAGATT; chemistry not given here; listed as Homo sapiens) [compound 38]	140.7	110.8
39 (CGCUUUAACUGGAAGCUCUTT; chemistry not given here; listed as Homo sapiens) [compound 39]	147	103.7
40 (CGAUGUUCGUGGACAUUCUTT; chemistry not given here; listed as Homo sapiens) [compound 40]	234.6	80.01
41 (CAACAGUACUUACCGAUGUTT; chemistry not given here; listed as Homo sapiens) [compound 41]	141.8	115.5
42 (CAAGUCACCUGUUACCUCATT; chemistry not given here; listed as Homo sapiens) [compound 42]	171.8	88.96
43 (GCUAAGUCUUUUCCACAGUTT; chemistry not given here; listed as Homo sapiens) [compound 43]	155.4	94.54
44 (CAACAGAUCAGAGAACAAATT; chemistry not given here; listed as Homo sapiens) [compound 44]	156.4	92.43
45 (GGAUAUUGGAGGCUAGUCATT; chemistry not given here; listed as Homo sapiens) [compound 45]	157.9	89.68
46 (CUCUUAUGGUAACCAAUGATT; chemistry not given here; listed as Homo sapiens) [compound 46]	160.2	91.56
47 (GUACCUGCGGGAUUACUCATT; chemistry not given here; listed as Homo sapiens) [compound 47]	160.7	90.99
48 (GCAAUGCUUGCAAAACUCATT; chemistry not given here; listed as Homo sapiens) [compound 48]	189.3	90.98
49 (CGAAACUUGUCAACGGGAATT; chemistry not given here; listed as Homo sapiens) [compound 49]	179.2	104.6
50 (GGAGGAAUCUCGAAUGCGATT; chemistry not given here; listed as Homo sapiens) [compound 50]	173.3	96
51 (CCAGCGAUACAACUCCUAUTT; chemistry not given here; listed as Homo sapiens) [compound 51]	176.8	83.64
52 (GGAAGAACGUCUUGCACAATT; chemistry not given here; listed as Homo sapiens) [compound 52]	183.1	85.47
53 (GAACAAAAUAGACCUCUUATT; chemistry not given here; listed as Homo sapiens) [compound 53]	162.7	101.9
54 (GCAUCUGUCCGAUCGCUCUTT; chemistry not given here; listed as Homo sapiens) [compound 54]	143.9	105.5
55 (CAACGGGACUAUUAUGAUATT; chemistry not given here; listed as Homo sapiens) [compound 55]	163.4	89.58
56 (CAACGGGACUAUUAUGAUATT; chemistry not given here; listed as Homo sapiens) [compound 56]	163.5	97.39
57 (GAACGAGUACAGCAAUAUATT; chemistry not given here; listed as Homo sapiens) [compound 57]	140.9	108.2
58 (ACAGGUCUUUAUCAAAGCATT; chemistry not given here; listed as Homo sapiens) [compound 58]	3.426	100.2
